Legend:
[1] = system: Trypanosoma cruzi; experiment: (§1) GSK_TCAKS: pIC50 Trypanosoma cruzi Imaging: Amastigotes/Cell. […] Cells were then washed once with PBS before infection. T. cruzi trypomastigotes, collected at days 5 to 8 after infection from LLC-MK2 parasite infected cultures, were allowed to swim out for 4h at 37C from a centrifuged pellet (2,500 rpm/10 min/room temperature). Trypomastigotes were then collected and counted in a CASY Cell Counter. Trypomastigotes, in supplemented DMEM, were added to H9c2 cultures in a multiplicity of infection of 1 and incubated for 18 h. Cells were washed once with PBS before incubation of the infected H9c2 monolayer with trypsin (Life-Technologies) to detach cells from the flask. Cells were counted in a CASY Cell Counter using a 150 um capillary and their density set at 5 * 10^4 cells per mL in supplemented assay DMEM. Infected H9c2 were dispensed into 384-well poly-lysine coated assay plates at 50uL per well using a Multidrop Combi dispenser. After seeding them, the plates were incubated at 37C, 5% CO2 for 72h. Cultures were then fixed and stained by addition of 50 uL of a solution containing 8% formaldehyde and 4 uM DRAQ5 DNA dye (BioStatus, UK) per well. […] Five images were collected per well for reliable statistical analysis. Automated image analysis was performed with a script developed on Acapella High Content Imaging and Analysis Software (PerkinElmer). Output: number of amastigotes per cell as infection level measurement.; assay type: functional, organism-based, Rattus norvegicus; conditions: H9c2, 4 h
[2] = system: Trypanosoma brucei brucei; experiment: GSK_TCAKS: pIC50 Trypanosoma brucei viability assay using fluorescence intensity. Assay plates (1536-well) were prepared by dispensing 25nL of compound solution per well using an Echo acoustic dispenser (Labcyte).; assay type: functional, organism-based; conditions: Lister 427, 2 h
[3] = target: Sterol 14-alpha demethylase (Trypanosoma cruzi (strain CL Brener), UniProt Q7Z1V1); experiment: GSK_TCAKS: pIC50 CYP51 from Trypanosoma cruzi.; assay type: functional
[4] = system: Trypanosoma cruzi; experiment: GSK_TCAKS: pIC50 Trypanosoma cruzi viability assay using beta-GAL activity. This assay was run at single shot at 5uM compound concentration per well. The biological reagents consisted of NIH-3T3 host cells and trypomastigotes parasitic cells; both cell types were set to a 3.3 * 10^5 cells/mL dilution in assay DMEM by means of a CASY cell counter device using a 60um capillary. 6 uL of the mixture were dispensed per well (about 1 * 10^3 host-cells and 1 * 10^3 parasites) with a Multidrop Combi dispenser. […] In all wells, the percentage of DMSO never exceeded 0.5%. Plates incubated for four days at 37C, 5% CO2. The substrate used for the assay fluorescence intensity (FLINT) readout was resorufin-beta-D-galactopiranoside (Sigma-Aldrich) at 5uM per well. It was diluted in PBS supplemented with the soft detergent Igepal (Fluka).; assay type: functional, organism-based, Mus musculus; conditions: Tulahuen, NIH3T3
[5] = system: Leishmania donovani; experiment: (§2) GSK_TCAKS: pIC50 Leishmania donovani Imaging: THP-1 Host Macrophages. Assay plates (384-well) were prepared by adding 250nL of compound to each well. For single shot assay, the final compound concentration was 5 uM. […] Automated image analysis was performed with a script developed on Acapella High Content Imaging and Analysis Software (PerkinElmer). Output: THP-1 cell count were reported for each well.; assay type: functional, organism-based, Homo sapiens
[6] = system: NIH3T3; experiment: GSK_TCAKS: pIC50 NIH 3T3 cell line viability assay using luminiscence. Tissue culture surface treated assay plates (1536-well) were used. […] The 100% cells survival control was determined exposing the host-cells to a 0.5% DMSO concentration, whereas the 100% toxicity control was achieved by seeding the cells in presence of Amphotericin B at 50uM. Plates were incubated for four days at 37C, 5% CO2. The assay readout was developed by addition of 5uL of CellTiter-Glo Reagent following the manufacturer's instructions. Luminiscence was measured using a ViewLux.; assay type: functional, cell-based; conditions: Mus musculus, NIH3T3, 96 h
[7] = system: Leishmania donovani; experiment: GSK_TCAKS: pIC50 Leishmania donovani viability assay using fluorescence intensity. Assay plates (1536-well) were prepared by adding 30nL per well of compound. For single shot assay, the final compound concentration was 5uM. […] Briefly, eGFP LdBOB axenic amastigotes were harvested, fixed and counted in a CASY cell counter (Roche-Applied Science). A final concentration of 1.5 * 10^5 cells per well were prepared in amastigote media containing 500 U/mL penicillin/streptomycin (Invitrogen) and 6uL was dispensed to each experimental well using a Multidrop Combi dispenser (Thermo Scientific). 6uL of assay media was dispensed to control columns used as reference for 100% compound response. Following incubation for 72 h at 37C, 5% CO2, 2 uL of resazurin was added to each well at a final concentration of 0.5 mM in phosphate buffered saline (PBS) with IGEPAL (Sigma-Aldrich), 0.05% (v/v).; assay type: functional, organism-based
[8] = GSK_TCAKS: pIC50 HepG2 human cell line viability assay using luminiscence. […] Seeding density was checked to ensure that new mono-layers were not more than 50% confluent at the time of harvesting. Cell suspension was added to 500 mL of the same medium at a final density of 1.2 * 10^5 cells/mL. This cell suspension was dispensed (25 uL, 3000 cells per well) into 384-well clear-bottom plates using a Multidrop Combi dispenser. Prior to addition of the cell suspension, the screening compounds (250 nL) were pre-dispensed into the plates with an Echo liquid handler. Plates were incubated for 48 h at 37C, 5% CO2. After incubation, plates equilibrated at room temperature for 30 min before proceeding to develop the luminescent signal. The signal developer, CellTiter-Glo Reagent, was allowed to equilibrate at room temperature for 30 min and added to the plates (25uL per well) using a Multidrop Combi dispenser. Plates were left for 10 min at room temperature for stabilization and then read using a ViewLux.; assay type: toxicity, cell-based
[9] = system: Trypanosoma brucei brucei; experiment: GSK_TCAKS: pIC50 Trypanosoma brucei viability assay using luminiscence. Assay plates (1536-well) were prepared. T. brucei cultures were harvested and counted in a CASY cell counter. A parasite suspension was prepared at a final concentration of 5 * 10^4 cells/mL in complete HMI9 medium and 6uL was dispensed to all wells containing compounds using a Multidrop Combi dispenser. 6uL of HMI9 media with 0.4% DMSO were dispensed to control columns. Plates were incubated for 24 h at 37C, 5% CO2 then tempered for 10 min at room temperature. ATP content was quantified by adding 4 uL of CellTiter-Glo Reagent (Promega) according to the manufacturer's instructions. Luminescence was measured using a ViewLux.; assay type: functional, organism-based; conditions: Lister 427, CASY
[10] = system: Leishmania donovani; experiment: as §2, with “Infected” for “THP-1 Host”, “Percent of infected macrophage cells” for “THP-1 cell count”; assay type: functional, organism-based, Homo sapiens; conditions: THP-1
[11] = system: Trypanosoma cruzi; experiment: as §1, with “H2C9” for “Trypanosoma cruzi”, “H9c2 Host Cardiomyocytes.” for “Amastigotes/Cell.”, “Number” for “number”, “H9c2 Host Cardiomyocytes nuclei to determine drug-related cytotoxicity.” for “amastigotes per cell as infection level measurement.”; assay type: functional, organism-based, Rattus norvegicus; conditions: H9c2, 4 h
[12] = system: Trypanosoma cruzi; experiment: GSK_TCAKS: pIC50 Trypanosoma cruzi Imaging: Infected Cells. […] Cells were then washed once with PBS before infection. T. cruzi trypomastigotes, collected at days 5 to 8 after infection from LLC-MK2 parasite infected cultures, were allowed to swim out for 4h at 37C from a centrifuged pellet (2,500 rpm/10 min/room temperature). Trypomastigotes were then collected and counted in a CASY Cell Counter. Trypomastigotes, in supplemented DMEM, were added to H9c2 cultures in a multiplicity of infection of 1 and incubated for 18 h. Cells were washed once with PBS before incubation of the infected H9c2 monolayer with trypsin (Life-Technologies) to detach cells from the flask. Cells were counted in a CASY Cell Counter using a 150 um capillary and their density set at 5 * 10^4 cells per mL in supplemented assay DMEM. Infected H9c2 were dispensed into 384-well poly-lysine coated assay plates at 50uL per well using a Multidrop Combi dispenser. After seeding them, the plates were incubated at 37C, 5% CO2 for 72h. Cultures were then fixed and stained by addition of 50 uL of a solution containing 8% formaldehyde and 4 uM DRAQ5 DNA dye (BioStatus, UK) per well. […] Five images were collected per well for reliable statistical analysis. Automated image analysis was performed with a script developed on Acapella High Content Imaging and Analysis Software (PerkinElmer). Output: percentage of infected cells per well as a second infection marker.; assay type: functional, organism-based, Rattus norvegicus; conditions: H9c2, 4 h
[13] = system: Leishmania donovani; experiment: as §2, with “Amastigotes/Macrophages.” for “THP-1 Host Macrophages.”, “Average number of amastigotes per macrophage” for “THP-1”, “cell” for “cell count”; assay type: functional, organism-based, Homo sapiens; conditions: THP-1

Sequence of Sterol 14-alpha demethylase (Q7Z1V1 whole entry): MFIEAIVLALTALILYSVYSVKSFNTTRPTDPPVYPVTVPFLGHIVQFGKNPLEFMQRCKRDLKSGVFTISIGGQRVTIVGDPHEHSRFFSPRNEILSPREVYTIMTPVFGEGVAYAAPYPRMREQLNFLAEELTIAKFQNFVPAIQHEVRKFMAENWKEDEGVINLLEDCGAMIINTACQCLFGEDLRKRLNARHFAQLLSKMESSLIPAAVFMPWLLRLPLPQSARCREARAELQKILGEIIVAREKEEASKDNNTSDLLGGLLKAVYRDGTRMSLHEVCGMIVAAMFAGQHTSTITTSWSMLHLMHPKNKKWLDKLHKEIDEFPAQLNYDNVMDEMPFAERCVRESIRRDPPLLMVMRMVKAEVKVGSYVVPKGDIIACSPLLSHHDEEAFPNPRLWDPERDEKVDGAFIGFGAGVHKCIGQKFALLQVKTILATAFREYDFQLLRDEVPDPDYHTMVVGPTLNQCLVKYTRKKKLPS

SMILES	IC50 [1] [µM]	IC50 [2] [µM]	IC50 [3] [µM]	IC50 [4] [µM]	IC50 [5] [µM]	IC50 [6] [µM]	IC50 [7] [µM]	IC50 at 48 h [8] [µM]	IC50 [9] [µM]	IC50 [10] [µM]	IC50 [11] [µM]	IC50 [12] [µM]	IC50 [13] [µM]
Cc1ccc2ccc(C(Nc3ccccn3)c3cccnc3)c(O)c2n1 (stereo unspecified)	0.2	5.01	0.0501	0.501	> 50.1	10	0.398	20	3.98	12.6	31.6	0.2	7.94
CN(C(=O)Nc1ccc2c(c1)CCN(C1CCC1)CC2)c1ccc(C#N)cc1	2	0.2	> 100	2	> 50.1	39.8	39.8	> 100	0.631	> 50.1	> 50.1	3.98	> 50.1
CN(C)CCN(C)Cc1ccc(F)cc1NS(=O)(=O)c1ccc(Cl)c(Cl)c1	2	5.01	> 126	1.58	31.6	15.8	7.94	39.8	5.01	7.94	6.31	2.51	2.51
COc1ccc(NS(=O)(=O)c2cccc(NC(=O)c3cc(F)cc(F)c3)c2)cc1	0.501	0.631	> 100	0.794	> 50.1	25.1	3.16	31.6	1	> 50.1	> 50.1	0.501	20
Cc1sc(C)c(C(F)(F)F)c1CNCCCNc1cc(=O)c2ccccc2[nH]1	0.501	0.01	20	0.794	31.6	10	> 50.1	50.1	0.0126	50.1	> 50.1	1	25.1
CN1CCCN(C(=O)c2ccc(N3CCCC3)cc2Cl)CC1	0.631	> 39.8	> 100	0.891	> 50.1	25.1	39.8	> 100	> 39.8	> 50.1	> 50.1	1	> 50.1
CC(C)Oc1cccc(N2CCC(C(=O)N3CCCN(C(C)C)CC3)CC2)c1	0.251	> 39.8	> 100	1.26	> 50.1	31.6	> 50.1	> 100	> 39.8	> 50.1	> 50.1	0.631	> 50.1
